The values below come from patent US20190060308A1, “PHARMACEUTICAL COMPOSITION COMPRISING AN OMEGA-3 FATTY ACID AND A HYDROXY-DERIVATIVE OF A STATIN AND METHODS OF USING SAME” (Amarin Pharmaceuticals Ireland Limited, priority 2012, published 2019).

Experiment [1] concerns human umbilical vein endothelial cells (HUVECs). The experiment is described as follows: NO and ONOO^− release from HUVECs exposed to oxLDL, tandem electrochemical nanosensors (Example 3). Type of experiment: cell-based. Particulars: for increase in NO/ONOO^− ratio: versus treatment with oxLDL and vehicle only, statin 1.0 μM. On the procedure: An experiment was conducted to test the effects of EPA with rosuvastatin, atorvastatin or o-hydroxyatorvastatin (an active hydroxyl metabolite, “ATM”) on nitric oxide (NO) and peroxynitrite (ONOO^−) release by human umbilical vein epithelial cells (“HUVECs”) following stimulation with oxidized LDL. Nitric oxide bioavailability, peroxynitrite bioavailability, and the ratio of bioavailable nitric oxide to bioavailable peroxynitrite (NO/ONOO^−) serve as useful indicators of endothelial cell function. In particular, the NO/ONOO^− ratio can serve as an indicator of normal epithelial cell function.
Human umbilical vein endothelial cells (HUVECs) were isolated into primary cultures from female donors by Clonetics (San Diego, Calif.) and purchased as proliferating cells. All cell culture donors were healthy, with no pregnancy or prenatal complications. […] The confluent cells (4 to 5×10^5 cells/35 mm dish) were placed with minimum essential medium containing 3 mM L-arginine and 0.1 mM BH4 [(6R)-5,6,7,8-tetrahydrobiopterin]. Before experimental use, the cells (from second or third passage) were rinsed twice with Tyrode-HEPES buffer with 1.8 mM CaCl2).
The effects of EPA treatment were tested in the absence and presence of statins in HUVECs following exposure to oxidized LDL (oxLDL). The oxLDL causes eNOS uncoupling and endothelial dysfunction to reproduced disease-like conditions. Venous blood from healthy normolipidemic volunteers was collected into Na-EDTA (1 mg/mL blood) vacuum tubes after a 12-hour fast. Plasma was immediately separated by centrifugation at 3,000 g for 10 minutes at 4° C. […] The purified LDL was dialyzed for 96 hours against PBS containing 0.3 mM EDTA at 4° C., then stored at 4° C.
A sample of LDL was dialyzed against Tris/NaCl Buffer (50 mM Tris in 0.15 M NaCl, pH 8.0) to remove the EDTA. Tris-NaCl buffer was added to the dialyzed n-LDL to adjust the protein concentration to 30 mg/mL. A 1-mL aliquot of 20 μM CuSO4 was added to 1 mL of dialyzed normal LDL. Oxidation at 37° C. was followed spectrophotometrically (234 nm) over a period of 24 hours until oxidation was complete. The oxLDL was then dialyzed at 4° C. with 4 L of Tris buffer, filtered with a 0.22 μm filter, and stored under nitrogen at 4° C.
Oxidation was monitored by the use of measurements of TBARS. Briefly, LDL was incubated with thiobarbituric acid (0.5 wt/vol, in H2SO4, 50 mM) for 30 minutes at 100° C. […] TBARS concentration was determined as malondialdehyde (MDA) equivalents with the use of an MDA standard curve.
Concurrent measurements of NO and ONOO^− were performed with tandem electrochemical nanosensors combined into one working unit with a total diameter of 200-400 nm. Their design was based on previously developed and chemically modified carbon-fiber technology. Each of the nanosensors was made by depositing a sensing material on the tip of a carbon fiber (length 4 to 5 μm, diameter 100-200 nm). The fibers were sealed with nonconductive epoxy and electrically connected to copper wires with conductive silver epoxy. Conductive films of polymeric Ni(II) tetrakis (3-methoxy-4-hydroxyphenyl) porphyrin and Mn(III) [2.2] paracyclophanylporphyrin were used for the NO and ONOO^− sensors, respectively.
The amperometric method (with a response time of 0.1 ms) provides a quantitative signal (current) that is directly proportional to changes (from basal levels) in NO or ONOO^− concentration. Amperometric measurements were performed with a Gamry III double-channel potentiostat. Basal NO or ONOO^− levels were measured by differential pulse voltammetry in separate experiments.
All measurements of NO and ONOO^− were performed on intact endothelial cells. The NO/ONOO^− nanosensor module was positioned 5±2 μm from the surface of each individual endothelial cell using a computer-controlled M3301 micromanipulator (x-y-z resolution of 0.2 μm) and microscope (both from World Precision Instruments, Berlin, Germany) fitted with a CD camera.

For experiment [2], the system named is human umbilical vein epithelial cells (HUVECs). The experiment is described as follows: NO and ONOO^− release by HUVECs following stimulation with oxidized LDL (Example 2). Type of experiment: cell-based. The note with it: calcium ionophore 1.0 μM, oxLDL 10 mg/dL, EPA 10.0 μM, rosuvastatin or ATM 1.0 μM. Here is the method:
An experiment was conducted to test the effects of EPA with rosuvastatin or atorvastatin active o-hydroxyl metabolite (“ortho-hydroxy atorvastatin” or “ATM”) on nitric oxide (NO) and peroxynitrite (ONOO^−) release by human umbilical vein epithelial cells (“HUVECs”) following stimulation with oxidized LDL. Nitric oxide bioavailability, peroxynitrite bioavailability, and the ratio of bioavailable nitric oxide to bioavailable peroxynitrite (NO/ONOO^−) serve as useful indicators of endothelial cell function. In particular, the NO/ONOO^− ratio can serve as an indicator of normal epithelial cell function.
In this experiment, HUVECs were equipped with prophyrinic nanosensors and then treated with calcium ionophore (1.0 μM). The HUVECs were then exposed to a solution of oxidized LDL (10 mg/dL).
HUVECs exposed to oxLDL were then treated with EPA alone (10.0 μM), a combination of EPA (10.0 μM) and rosuvastatin (1.0 μM), or a combination of EPA (10.0 μM) and ATM (1.0 μM).

The mark [3] stands for this setting: HUVECs exposed to oxLDL, EPA 10 μM.
Where [4] appears, read: compared to treatment with oxLDL and vehicle only, EPA 10 μM.

Take `c1ccc(Cn2nnc3c(Sc4nc5ccccc5o4)ncnc32)cc1` [VAS2870]: in experiment [1] (HUVECs exposed to oxLDL, VAS2870 alone or with EPA and statin), the “increase in NO/ONOO^− ratio (in words)” value is given as “two-fold”.
Turning to `CC(C)c1nc(N(C)S(C)(=O)=O)nc(-c2ccc(F)cc2)c1/C=C/[C@@H](O)C[C@@H](O)CC(=O)O` [rosuvastatin], in experiment [2], the “NO” value was 191 ± 33 nM, the “NO/ONOO^−” value is recorded as 0.8 and the “ONOO^−” value is reported as 252 ± 39 nM. Also, the “increase in NO/ONOO^− ratio” value in experiment [1] (EPA 10 μM) is listed as 21%.
For the compound `CC(C)c1c(C(=O)Nc2ccccc2O)c(-c2ccccc2)c(-c2ccc(F)cc2)n1CC[C@@H](O)C[C@@H](O)CC(=O)O` [ATM, o-hydroxyatorvastatin], in experiment [2], the “NO” value was found to be 199 ± 20 nM, the “NO/ONOO^−” value was determined as 0.8 and the “ONOO^−” value is on record as 236 ± 35 nM. Further, the “increase in NO/ONOO^− ratio” value in experiment [1] (EPA 10 μM) came out at 33%.
`CC(C)c1c(C(=O)Nc2ccccc2)c(-c2ccccc2)c(-c2ccc(F)cc2)n1CC[C@@H](O)C[C@@H](O)CC(=O)O` [atorvastatin]: in experiment [1] (EPA 10 μM), the “increase in NO/ONOO^− ratio” value is 84%.
As to `CC/C=C\C/C=C\C/C=C\C/C=C\C/C=C\CCCC(=O)O` [EPA, eicosapentaenoic acid], in experiment [2], the “NO” value was determined as 208 ± 32 nM, the “NO/ONOO^−” value was determined as 1.0 and the “ONOO^−” value is given as 203 ± 21 nM. Further, in experiment [1] (setting [3]), the NO release amounted to 208 ± 32 nM and the “ONOO^− release” value was 203 ± 21 nM. Further, in experiment [1] (setting [4]), the “increase in NO release” value was determined as 18% and the “reduction of ONOO^− release” value stood at 16%. Besides, the “increase in NO/ONOO^− ratio” value in experiment [1] (EPA 10 μM) is 41%.
